In US4255183A, “Substituted phenyl urea and herbicides for use in paddy field” (Hokko Chemical Industry Co., Ltd., priority 1977, dated 1981):
Read-outs that look alike come from different tables or passages of the source.

Tests used:
[1] = test system: paddy rice; assay: Test Example 5: Wagner pot test, chemical injury on paddy rice; format: in vivo, paddy rice (Asahi species); conditions: 600 g/10a; note: key: 5: Completely killed; 4: Considerably injured; 3: Moderately injured; 2: A little injured; 1: Slightly injured; 0: Not injured
Method: (§1) In a 1/7500 are Wagner pot, sieved paddy field soil (alluvial soil) was charged. Thereafter, in the center portion of the pot, 2 roots of paddy rice (Asahi species) at the 2- to 3-leaf stage were transplanted and 20 seeds of Bulrush per pot were seeded in the surface of the above soil. The pot was submerged at the depth of about 2 cm. The other Dopatrium junceum and umbrella plant were generated naturally. After seeding, when each of the weeds reached the same leaf age as defined in Table 5 given herein, a predetermined concentration of the emulsion prepared according to Example 4 was applied dropwise on the surface of the pot. The test was carried out by repeating the same test three times per area and the results were determined 20 days after the application of the chemicals with regard to the herbicidal effect and chemical injury on paddy rice on the basis of the evaluation index as shown below.
(§2) As the comparative chemicals Molinate, Benthiocarb and DCMU, those commercially available were used.

[2] = test system: paddy rice; assay: whole plant or invertebrate; format: in vivo, paddy rice (Asahi species); conditions: for inhibition at 1000 g/ha / inhibition at 3000 g/ha / inhibition at 9000 g/ha: Oryza sativa, 720 h; for Inhibition (%) by treatment at 1-leaf stage of E. crus-galli var. oryzicola, paddy rice / Inhibition (%) by treatment at 5-leaf stage of E. crus-galli var. oryzicola, paddy rice: granule, 30 days; for Inhibition (%) by treatment at 1-leaf stage of E. crus-galli var. oryzicola, paddy rice: rice at 3.5 leaves stage; for Inhibition (%) by treatment at 5-leaf stage of E. crus-galli var. oryzicola, paddy rice: rice at 7 leaves stage
Method: (§3) In a Wagner pot of 1/500 are, paddy field soil (alluvial soil) was placed and 50 seeds of Echinochloa crus-galli var. oryzicola and 30 seeds of paddy rice were seeded in the surface layer of said soil and the submerging depth was kept at about 1 cm. When Echinochloa crus-galli var. oryzicola reached at the one leaf stage and 5-leaf stage, the emulsion of a predetermined concentration, prepared according to Example 4 was added dropwise. After 30 days from the treatment with the chemical, dry weights of Echinochloa crus-galli var. oryzicola and paddy rice were measured and the inhibition rate was calculated with reference to untreated area. [formula]
(§4) In a concrete pot of 1/400 are (50 cm×50 cm), paddy field soil (alluvial soil) was placed and 200 seeds of Echinochloa crus-galli var. oryzicola were seeded in 10 surface layer of said soil and the soil was submerged at about 3 cm depth. Before emergence of Echinochloa crus-galli var. oryzicola, paddy rice at 2.5-leaf stage (Asahi species) was transplanted at the rate of 8 stubs per pot, planting 3 seedlings per stub. At the one-leaf stage (3.5 leaves stage of paddy rice) and 5 leaves stage (7 leaves stage of paddy rice) of Echinochloa crus-galli var. oryzicola, the granule prepared according to Example 1 was applied. […] 30 Days after the treatment with the chemical, examination was made in the similar manner as Test Example 1 to obtain results as shown in Table 2.
(§5) In the table, as the comparative chemicals CPN, Benthiocarb, Molinate and Simetryne, those commercially available were used and the comparative chemicals A and B (as mentioned before) used were prepared according to the process for preparing the compound of this invention.

[3] = test system: Echinochloa crus-galli var. oryzicola; assay: Test Example 4: field test in submerged directly seeded paddy field, Echinochloa crus-galli var. oryzicola; format: in vivo; conditions: Echinochloa crus-galli, 504 h; 300 g/10 are, emulsion, 2- to 3-leaf stage, 21 days after application; read-out: Inhibition (%) of E. crus-galli var. oryzicola
Method: as §3
(§6) In a 10 m^2 paddy field, 30 g of Echinochloa crus-galli var. oryzicola seeds were seeded at the time of puddling and the depth of submerging was kept at 3-5 cm. 3 Days after the puddling, 50 g of paddy rice at the emergence stage (Asahi species) were seeded. When Echinochloa crus-galli var. oryzicola and paddy rice reached a 2- to 3-leaf stage, a predetermined dose of the emulsion prepared according to Example 4 was applied uniformly by means of a manual spraying machine. Test results were examined 21 days after the application of the chemicals in the similar manner as in Test Example 1.
(§7) The comparative chemical 1 used was that commercially available and the comparative chemical 2 used was prepared according to Example 4.

[4] = test system: Bulrush; assay: Test Example 5: Wagner pot test, herbicidal effect on Bulrush; format: in vivo; conditions: 600 g/10a
Method: as §1, §2
(§8) In the above table, the inhibition rate was calculated according to the method as described in Test Example 1.

[5] = test system: Umbrella plant; assay: Test Example 5: Wagner pot test, herbicidal effect on umbrella plant; format: in vivo; conditions: 600 g/10a, 20 days after application
Method: as §1, §2, §8

[6] = test system: paddy rice; assay: Test Example 4: field test in submerged directly seeded paddy field, paddy rice; format: in vivo, paddy rice (Asahi species); conditions: Oryza sativa, 504 h; 300 g/10 are, emulsion, 2- to 3-leaf stage, 21 days after application
Method: as §3, §6, §7

[7] = test system: Echinochloa crus-galli var. oryzicola; assay: Test Example 2: concrete pot test on killing effect, Echinochloa crus-galli var. oryzicola; format: in vivo; conditions: for inhibition at 1000 g/ha / inhibition at 3000 g/ha / inhibition at 9000 g/ha: Echinochloa crus-galli, 720 h; for Inhibition (%) by treatment at 1-leaf stage of E. crus-galli var. oryzicola, E. crus-galli var. oryzicola / Inhibition (%) by treatment at 5-leaf stage of E. crus-galli var. oryzicola, E. crus-galli var. oryzicola: granule, 30 days after treatment
Method: as §3, §4, §5

[8] = test system: Dopatrium junceum; assay: Test Example 5: Wagner pot test, herbicidal effect on Dopatrium junceum; format: in vivo; conditions: 600 g/10a
Method: as §1, §2, §8

[9] = test system: Echinochloa crus-galli var. oryzicola; assay: Test Example 1: pot test on selectivity, inhibition of Echinochloa crus-galli var. oryzicola; format: in vivo; conditions: dry weight 30 days after treatment
Method: as §3
(§9) The comparative chemicals used, i.e. DCMU and Linuron, were those commercially available, and the comparative chemicals A and B used were prepared according to the process for formulating the compound of this invention.

[10] = test system: paddy rice; assay: Test Example 1: pot test on selectivity, inhibition of paddy rice; format: in vivo; conditions: dry weight 30 days after treatment
Method: as §3, with “When Echinochloa crus-galli var. oryzicola reached at the one leaf stage and 5-leaf stage, the emulsion of a predetermined concentration, prepared according to Example 4 was added dropwise.” left out
as §9

[11] = leaf age 3, 20 days after application
[12] = read-out: Inhibition (%) by treatment at 1-leaf stage of E. crus-galli var. oryzicola, paddy rice
[13] = read-out: Inhibition (%) by treatment at 5-leaf stage of E. crus-galli var. oryzicola, paddy rice
[14] = read-out: Inhibition (%) by treatment at 1-leaf stage of E. crus-galli var. oryzicola, E. crus-galli var. oryzicola
[15] = read-out: Inhibition (%) by treatment at 5-leaf stage of E. crus-galli var. oryzicola, E. crus-galli var. oryzicola

## CCN(CC)C(=O)SCc1ccc(Cl)cc1 [Benthiocarb, 4-chlorobenzyl-N,N-diethylthiolcarbamate]
[1]; 3 tillers, 20 days after application
  Chemical injury on paddy rice: 0
[1]; [11]
  Chemical injury on paddy rice: 2
[2]; [12]
  inhibition at 1000 g/ha: 0%
  inhibition at 3000 g/ha: 10%
  inhibition at 9000 g/ha: 46%
[2]; [13]
  inhibition at 1000 g/ha: 0%
  inhibition at 3000 g/ha: 0%
  inhibition at 9000 g/ha: 10%
[3]
  inhibition at 3000 g/ha: 76%
[4]; [11]
  Weed kill degree, Bulrush: 2 (60-79)
[4]; leaf age 3-5, 20 days after application
  Weed kill degree, Bulrush: 4 (90-99)
[5]; leaf age 2 (first group of columns)
  Weed kill degree, Umbrella plant: 5 (100)
[5]; leaf age 2 (second group of columns)
  Weed kill degree, Umbrella plant: 5 (100)
[6]
  inhibition at 3000 g/ha: 15%
[7]; [14]
  inhibition at 1000 g/ha: 82%
  inhibition at 3000 g/ha: 100%
  inhibition at 9000 g/ha: 100%
[7]; [15]
  inhibition at 1000 g/ha: 0%
  inhibition at 3000 g/ha: 6%
  inhibition at 9000 g/ha: 23%
[8]; leaf age 2, 20 days after application
  Weed kill degree, Dopatrium junceum: 5 (100)
[8]; [11]
  Weed kill degree, Dopatrium junceum: 5 (100)

## CC(Cl)=CCOc1ccc(NC(=O)N(C)C)cc1 [Comparative chemical A]
[9]; 75 g/10 are
  Inhibition (%) by treatment at 1-leaf stage, E. crus-galli var. oryzicola: 87%
  Inhibition (%) by treatment at 5-leaf stage, E. crus-galli var. oryzicola: 37%
[9]; 150 g/10 are
  Inhibition (%) by treatment at 1-leaf stage, E. crus-galli var. oryzicola: 100%
  Inhibition (%) by treatment at 5-leaf stage, E. crus-galli var. oryzicola: 67%
[9]; 300 g/10 are
  Inhibition (%) by treatment at 1-leaf stage, E. crus-galli var. oryzicola: 100%
  Inhibition (%) by treatment at 5-leaf stage, E. crus-galli var. oryzicola: 82%
[9]; 600 g/10 are
  Inhibition (%) by treatment at 1-leaf stage, E. crus-galli var. oryzicola: 100%
  Inhibition (%) by treatment at 5-leaf stage, E. crus-galli var. oryzicola: 95%
[9]; 900 g/10 are
  Inhibition (%) by treatment at 1-leaf stage, E. crus-galli var. oryzicola: 100%
  Inhibition (%) by treatment at 5-leaf stage, E. crus-galli var. oryzicola: 100%
[2]; 100 g/10 are
  Inhibition (%) by treatment at 1-leaf stage of E. crus-galli var. oryzicola, paddy rice: 0%
  Inhibition (%) by treatment at 5-leaf stage of E. crus-galli var. oryzicola, paddy rice: 0%
[2]; 300 g/10 are
  Inhibition (%) by treatment at 1-leaf stage of E. crus-galli var. oryzicola, paddy rice: 0%
  Inhibition (%) by treatment at 5-leaf stage of E. crus-galli var. oryzicola, paddy rice: 0%
[2]; 900 g/10 are
  Inhibition (%) by treatment at 1-leaf stage of E. crus-galli var. oryzicola, paddy rice: 23%
  Inhibition (%) by treatment at 5-leaf stage of E. crus-galli var. oryzicola, paddy rice: 5%
[10]; 75 g/10 are
  Inhibition (%) by treatment at 1-leaf stage, paddy rice: 0%
  Inhibition (%) by treatment at 5-leaf stage, paddy rice: 0%
[10]; 150 g/10 are
  Inhibition (%) by treatment at 1-leaf stage, paddy rice: 0%
  Inhibition (%) by treatment at 5-leaf stage, paddy rice: 0%
[10]; 300 g/10 are
  Inhibition (%) by treatment at 1-leaf stage, paddy rice: 0%
  Inhibition (%) by treatment at 5-leaf stage, paddy rice: 0%
[10]; 600 g/10 are
  Inhibition (%) by treatment at 1-leaf stage, paddy rice: 15%
  Inhibition (%) by treatment at 5-leaf stage, paddy rice: 0%
[10]; 900 g/10 are
  Inhibition (%) by treatment at 1-leaf stage, paddy rice: 35%
  Inhibition (%) by treatment at 5-leaf stage, paddy rice: 12%
[7]; 100 g/10 are
  Inhibition (%) by treatment at 1-leaf stage of E. crus-galli var. oryzicola, E. crus-galli var. oryzicola: 100%
  Inhibition (%) by treatment at 5-leaf stage of E. crus-galli var. oryzicola, E. crus-galli var. oryzicola: 48%
[7]; 300 g/10 are
  Inhibition (%) by treatment at 1-leaf stage of E. crus-galli var. oryzicola, E. crus-galli var. oryzicola: 100%
  Inhibition (%) by treatment at 5-leaf stage of E. crus-galli var. oryzicola, E. crus-galli var. oryzicola: 72%
[7]; 900 g/10 are
  Inhibition (%) by treatment at 1-leaf stage of E. crus-galli var. oryzicola, E. crus-galli var. oryzicola: 100%
  Inhibition (%) by treatment at 5-leaf stage of E. crus-galli var. oryzicola, E. crus-galli var. oryzicola: 98%

## CNC(=O)Nc1ccc(OCC=C(C)Cl)cc1 [Comparative chemical B]
[9]; 75 g/10 are
  Inhibition (%) by treatment at 1-leaf stage, E. crus-galli var. oryzicola: 10%
  Inhibition (%) by treatment at 5-leaf stage, E. crus-galli var. oryzicola: 0%
[9]; 150 g/10 are
  Inhibition (%) by treatment at 1-leaf stage, E. crus-galli var. oryzicola: 35%
  Inhibition (%) by treatment at 5-leaf stage, E. crus-galli var. oryzicola: 0%
[9]; 300 g/10 are
  Inhibition (%) by treatment at 1-leaf stage, E. crus-galli var. oryzicola: 80%
  Inhibition (%) by treatment at 5-leaf stage, E. crus-galli var. oryzicola: 7%
[9]; 600 g/10 are
  Inhibition (%) by treatment at 1-leaf stage, E. crus-galli var. oryzicola: 100%
  Inhibition (%) by treatment at 5-leaf stage, E. crus-galli var. oryzicola: 12%
[9]; 900 g/10 are
  Inhibition (%) by treatment at 1-leaf stage, E. crus-galli var. oryzicola: 100%
  Inhibition (%) by treatment at 5-leaf stage, E. crus-galli var. oryzicola: 36%
[2]; 100 g/10 are
  Inhibition (%) by treatment at 1-leaf stage of E. crus-galli var. oryzicola, paddy rice: 0%
  Inhibition (%) by treatment at 5-leaf stage of E. crus-galli var. oryzicola, paddy rice: 0%
[2]; 300 g/10 are
  Inhibition (%) by treatment at 1-leaf stage of E. crus-galli var. oryzicola, paddy rice: 0%
  Inhibition (%) by treatment at 5-leaf stage of E. crus-galli var. oryzicola, paddy rice: 0%
[2]; 900 g/10 are
  Inhibition (%) by treatment at 1-leaf stage of E. crus-galli var. oryzicola, paddy rice: 40%
  Inhibition (%) by treatment at 5-leaf stage of E. crus-galli var. oryzicola, paddy rice: 7%
[10]; 75 g/10 are
  Inhibition (%) by treatment at 1-leaf stage, paddy rice: 0%
  Inhibition (%) by treatment at 5-leaf stage, paddy rice: 0%
[10]; 150 g/10 are
  Inhibition (%) by treatment at 1-leaf stage, paddy rice: 0%
  Inhibition (%) by treatment at 5-leaf stage, paddy rice: 0%
[10]; 300 g/10 are
  Inhibition (%) by treatment at 1-leaf stage, paddy rice: 36%
  Inhibition (%) by treatment at 5-leaf stage, paddy rice: 0%
[10]; 600 g/10 are
  Inhibition (%) by treatment at 1-leaf stage, paddy rice: 60%
  Inhibition (%) by treatment at 5-leaf stage, paddy rice: 7%
[10]; 900 g/10 are
  Inhibition (%) by treatment at 1-leaf stage, paddy rice: 72%
  Inhibition (%) by treatment at 5-leaf stage, paddy rice: 26%
[7]; 100 g/10 are
  Inhibition (%) by treatment at 1-leaf stage of E. crus-galli var. oryzicola, E. crus-galli var. oryzicola: 20%
  Inhibition (%) by treatment at 5-leaf stage of E. crus-galli var. oryzicola, E. crus-galli var. oryzicola: 0%
[7]; 300 g/10 are
  Inhibition (%) by treatment at 1-leaf stage of E. crus-galli var. oryzicola, E. crus-galli var. oryzicola: 75%
  Inhibition (%) by treatment at 5-leaf stage of E. crus-galli var. oryzicola, E. crus-galli var. oryzicola: 0%
[7]; 900 g/10 are
  Inhibition (%) by treatment at 1-leaf stage of E. crus-galli var. oryzicola, E. crus-galli var. oryzicola: 100%
  Inhibition (%) by treatment at 5-leaf stage of E. crus-galli var. oryzicola, E. crus-galli var. oryzicola: 30%
